Patent publication US20260225997A1, “IONIZABLE AMINE LIPIDS” (Intellia Therapeutics, Inc., priority 2018, published 2026)
Where two headings read alike, the source gives them in different places. One block for each compound: values may come before it.

Key:
[1] = pKa measurement of unformulated amine lipid (fluorescence, method of Jayaraman et al.); type: physicochemical; settings: 100 μM in 0.1 M phosphate buffer pH 4.5-9.0
Protocol: The pKa of each amine lipid was determined according to the method in Jayaraman, et al. (Angewandte Chemie, 2012) with the following adaptations. […] Lipid was diluted to 100 μM in 0.1 M phosphate buffer (Boston Bioproducts) where the pH ranged from 4.5-9.0. Fluorescence intensity was measured using excitation and emission wavelengths of 321 nm and 448 nm.

TTR [2] = test: TTR editing in mouse liver by NGS after i.v. LNP delivery of Cas9 mRNA and sgRNA; type: in vivo; settings: CD-1 female mice
Protocol: Preparations of various LNP compositions were prepared with amine lipids. In assays for percent liver editing in mice, Cas9 mRNA and chemically modified sgRNA were formulated in LNPs, at either a 1:1 w/w ratio or a 1:2 w/w ratio. LNPs are formulated with a composition of a given ionizable lipid (e.g. an amine lipid), DSPC, cholesterol, and PEG-2k-DMG, with a 6.0 N:P ratio.
(§1) CD-1 female mice, ranging from 6-10 weeks of age were used in each study. Animals were weighed and grouped according to body weight for preparing dosing solutions based on group average weight. LNPs were dosed via the lateral tail vein in a volume of 0.2 mL per animal (approximately 10 mL per kilogram body weight). The animals were periodically observed post dose for adverse effects for at least 24 hours post dose. Animals were euthanized at 6 or 7 days by exsanguination via cardiac puncture under isoflurane anesthesia. Blood was collected into serum separator tubes or into tubes containing buffered sodium citrate for plasma as described herein. For studies involving in vivo editing, liver tissue was collected from each animal for DNA extraction and analysis.
Cohorts of mice were measured for liver editing by Next-Generation Sequencing (NGS).
In brief, to quantitatively determine the efficiency of editing at the target location in the genome, genomic DNA was isolated and deep sequencing was utilized to identify the presence of insertions and deletions introduced by gene editing.
PCR primers were designed around the target site (e.g., B2M), and the genomic area of interest was amplified. Additional PCR was performed according to the manufacturer's protocols (Illumina) to add the necessary chemistry for sequencing. The amplicons were sequenced on an Illumina MiSeq instrument. The reads were aligned to the […] after eliminating those having low quality scores. The resulting files containing the reads were mapped to the reference genome (BAM files), where reads that overlapped the target region of interest were selected and the number of wild type reads versus the number of reads which contain an insertion, substitution, or deletion was calculated.
The editing percentage (e.g., the “editing efficiency” or “percent editing”) is defined as the total number of sequence reads with insertions or deletions over the total number of sequence reads, including wild type.
CD-1 female mice were dosed i.v. at 0.1 mpk or 0.3 mpk. At 6 days post-dose, animals were sacrificed. For animals dosed with G282 targeting TTR, blood and the liver were collected and serum TTR and editing were measured. For animals dosed with G650 targeting B2M, liver was collected and editing was measured.

TTR [3] = test: Transthyretin (TTR) ELISA analysis of mouse serum after LNP dosing; type: in vivo; settings: for response vs control in vivo at 0.1 mg/kg / response vs control in vivo at 0.03 mg/kg: read-out: Serum TTR % TSS
Protocol: as §1
CD-1 female mice were dosed i.v. at 0.1 mpk or 0.3 mpk. […] For animals dosed with G282 targeting TTR, blood and the liver were collected and serum TTR and editing were measured. For animals dosed with G650 targeting B2M, liver was collected and editing was measured.
Blood was collected and the serum was isolated as indicated. The total mouse TTR serum levels were determined using a Mouse Prealbumin (Transthyretin) ELISA Kit (Aviva Systems Biology, Cat. OKIA00111). Briefly, sera were serial diluted with kit sample diluent to a final dilution of 10,000-fold for 0.1 mpk dose and 2,500-fold for 0.3 mpk. This diluted sample was then added to the ELISA plates and the assay was then carried out according to directions.

[4] = Example 58: 0.1 mpk i.v., 6 days post-dose, G282 1:1
[5] = Mus musculus, iv, 144 h, Example 58: 0.1 mpk i.v., 6 days post-dose, G282 1:1
[6] = Example 63: 0.03 mpk i.v., 7 days post-dose, G282 1:1
[7] = Example 63: 0.1 mpk i.v., 7 days post-dose, G282 1:1
[8] = Mus musculus, iv, 168 h, Example 63: 0.03 mpk i.v., 7 days post-dose, G282 1:1
[9] = Mus musculus, iv, 168 h, Example 63: 0.1 mpk i.v., 7 days post-dose, G282 1:1
[10] = Example 55: 0.1 mpk i.v., 7 days post-dose, G282 1:1
[11] = Example 64: Dose 0.03 mpk (table) i.v., 7 days post-dose, G282 1:1
[12] = Example 62: 0.03 mpk i.v., 7 days post-dose, G282 1:2
[13] = Example 62: 0.1 mpk i.v., 7 days post-dose, G282 1:2
[14] = Example 61: 0.1 mpk i.v., 7 days post-dose, G282 1:1

Compound: CCCCCCCCCOC(=O)CCCCCCCN(CCCCCCC(OCCCCCCCC)OCCCCCCCC)CCNS(C)(=O)=O [Compound 47, nonyl 8-((7,7-bis(octyloxy)heptyl)(2-(methylsulfonamido)ethyl)amino)octanoate]
- pKa [1]: 6.93

Compound: CCCCCCCCCCOC(=O)CCCCCCN(CCO)CCCCCCCC(OCCCCCCCC)OCCCCCCCC [Compound 12, decyl 7-((8,8-bis(octyloxy)octyl)(2-hydroxyethyl)amino)heptanoate]
- pKa [1]: 6.38
- Editing Mean % Indel (TTR [2]; [4]): 33.0%
- Serum TTR (TTR [3]; [4]): 490 µg/mL
- response vs control in vivo at 0.1 mg/kg (TTR [3]; [5]): 50%

Compound: CCCCCCCCCOC(=O)CCCCCCCN(CCCO)CCCCCCC(OCCCCCCCC)OCCCCCCCC [Compound 37, nonyl 8-((7,7-bis(octyloxy)heptyl)(3-hydroxypropyl)amino)octanoate]
- pKa [1]: 6.3

Compound: CCCCCCCCCOC(=O)CCCCCCCN(CCN)CCCCCCC(OCCCCCCCC)OCCCCCCCC [Compound 36, nonyl 8-((2-aminoethyl)(7,7-bis(octyloxy)heptyl)amino)octanoate]
- pKa [1]: 7.2

Compound: CCCCCCCCCOC(=O)CCCCCCCN(CCO)CCCCCCCC(OCCCCCCC)OCCCCCCC [Compound 7, nonyl 8-((8,8-bis(heptyloxy)octyl)(2-hydroxyethyl)amino)octanoate]
- pKa [1]: 6.16
- % Editing (TTR, liver) (TTR [2]; [10]): 50%
- Serum TTR (TTR [3]; [10]): 234 µg/mL
- Serum TTR (% TSS) (TTR [3]; [10]): 21 % TSS

Compound: CCCCCCCCCOC(=O)CCCCCCCN(CCCCCCC(OCCCCCCCC)OCCCCCCCC)CCCNC(C)=O [Compound 42, nonyl 8-((3-acetamidopropyl)(7,7-bis(octyloxy)heptyl)amino)octanoate]
- pKa [1]: 7.19
- Editing Mean % Indel (TTR [2]; [11]): 9.6%
- Serum TTR (TTR [3]; [11]): 571.6 µg/mL
- inhibition in vivo at 0.03 mg/kg (TTR [3]; Mus musculus, iv, 168 h, Example 64: Dose 0.03 mpk (table) i.v., 7 days post-dose, G282 1:1, read-out: Serum TTR (% KD)): 0.2%

Compound: CCCCCCCCCOC(=O)CCCCCCCN(CCCCCCC(OCCCCCCCC)OCCCCCCCC)CCCOC(C)=O [Compound 50, nonyl 8-((3-acetoxypropyl)(7,7-bis(octyloxy)heptyl)amino)octanoate]
- pKa [1]: 5.45

Compound: CCCCCCCCOC(CCCCCCCN(CCO)CCCCCCCCCCOC(=O)CCCCCC)OCCCCCCCC [Compound 24, 10-((8,8-bis(octyloxy)octyl)(2-hydroxyethyl)amino)decyl heptanoate]
- pKa [1]: 5.95

Compound: CCCCCCCCCOC(=O)CCCCCCCN(CCO)CCCCCCCCC(OCCCCCCCC)OCCCCCCCC [Compound 9, nonyl 8-((9,9-bis(octyloxy)nonyl)(2-hydroxyethyl)amino octanoate]
- pKa [1]: 6.12
- Editing Mean % Indel (TTR [2]; [14]): 52.1%
- Serum TTR (TTR [3]; [14]): 218 µg/mL
- response vs control in vivo at 0.1 mg/kg (TTR [3]; Mus musculus, iv, 168 h, Example 61: 0.1 mpk i.v., 7 days post-dose, G282 1:1): 17%

Compound: CCCCCCCCCOC(=O)CCCCCCCN(CCCCCCC(OCCCCCCCC)OCCCCCCCC)CCCNS(C)(=O)=O [Compound 48, nonyl 8-((7,7-bis(octyloxy)heptyl)(3-(methylsulfonamido)propyl)amino)octanoate]
- pKa [1]: 7.61

Compound: CCCCCCCCCOC(=O)CCCCCCCN(CCCCCCC(OCCCCCCCC)OCCCCCCCC)CCOC(C)=O [Compound 49, nonyl 8-((2-acetoxyethyl)(7,7-bis(octyloxy)heptyl)amino)octanoate]
- pKa [1]: 5.32

Compound: CCCCCCCCCOC(=O)CCCCCCCN(CCCN)CCCCCCC(OCCCCCCCC)OCCCCCCCC [Compound 38, nonyl 8-((3-aminopropyl)(7,7-bis(octyloxy)heptyl)amino)octanoate]
- pKa [1]: 7.81

Continued, in another order:

- pKa [1]: 6.37
Compound: CCCCCCCCOC(CCCCCCN(CCO)CCCCCCCC(=O)OC(CC)CCCC)OCCCCCCCC (stereo not drawn) [Compound 35, heptan-3-yl 8-((7,7-bis(octyloxy)heptyl)(2-hydroxyethyl)amino)octanoate]

- pKa [1]: 6.33
Compound: CCCCCCCCOC(CCCCCCN(CCO)CCCCCCCC(=O)OC(CC)CCCCCC)OCCCCCCCC (stereo not drawn) [Compound 33, nonan-3-yl 8-((7,7-bis(octyloxy)heptyl)(2-hydroxyethyl)amino)octanoate]

- pKa [1]: 5.99
Compound: CCCCCCCCOC(CCCCCCCN(CCO)CCCCCCCC(=O)OC(C)CCCCCCCC)OCCCCCCCC (stereo not drawn) [Compound 21, decan-2-yl 8-((8,8-bis(octyloxy)octyl)(2-hydroxyethyl)amino)octanoate]

- pKa [1]: 6.54
Compound: CCCCCCCCOC(CCCCCCCN(CCO)CCCCCCCC(=O)OCCCCC)OCCCCCCCC [Compound 29, pentyl 8-((8,8-bis(octyloxy)octyl)(2-hydroxyethyl)amino)octanoate]
- Editing Mean % Indel (TTR [2]; [6]): 5.76%
- Editing Mean % Indel (TTR [2]; [7]): 15.96%
- Serum TTR (TTR [3]; [6]): 718.48 µg/mL
- Serum TTR (TTR [3]; [7]): 660.46 µg/mL
- response vs control in vivo at 0.03 mg/kg (TTR [3]; [8]): 89%
- response vs control in vivo at 0.1 mg/kg (TTR [3]; [9]): 81.8%

- pKa [1]: 6.34
Compound: CCCCCCCCOC(CCCCCCCN(CCO)CCCCCCCC(=O)OCCCCCCC)OCCCCCCCC [Compound 15, heptyl 8-((8,8-bis(octyloxy)octyl)(2-hydroxyethyl)amino)octanoate]
- Editing Mean % Indel (TTR [2]; [4]): 50.3%
- Editing Mean % Indel (TTR [2]; [12]): 16.4%
- Editing Mean % Indel (TTR [2]; [13]): 57.4%
- Serum TTR (TTR [3]; [4]): 179 µg/mL
- Serum TTR (TTR [3]; [12]): 548 µg/mL
- Serum TTR (TTR [3]; [13]): 180 µg/mL
- response vs control in vivo at 0.1 mg/kg (TTR [3]; [5]): 18%
- response vs control in vivo at 0.03 mg/kg (TTR [3]; Mus musculus, iv, 168 h, Example 62: 0.03 mpk i.v., 7 days post-dose, G282 1:2): 86%
- response vs control in vivo at 0.1 mg/kg (TTR [3]; Mus musculus, iv, 168 h, Example 62: 0.1 mpk i.v., 7 days post-dose, G282 1:2): 28%

- pKa [1]: 6.48
Compound: CCCCCCCCOC(CCCCCCCN(CCO)CCCCCCCC(=O)OC(CC)CCCC)OCCCCCCCC (stereo not drawn) [Compound 30, heptan-3-yl 8-((8,8-bis(octyloxy)octyl)(2-hydroxyethyl)amino)octanoate]
- Editing Mean % Indel (TTR [2]; [6]): 27.64%
- Editing Mean % Indel (TTR [2]; [7]): 62.48%
- Serum TTR (TTR [3]; [6]): 514.23 µg/mL
- Serum TTR (TTR [3]; [7]): 125.89 µg/mL
- response vs control in vivo at 0.03 mg/kg (TTR [3]; [8]): 63.7%
- response vs control in vivo at 0.1 mg/kg (TTR [3]; [9]): 15.6%

- pKa [1]: 6.36
Compound: CCCCCCCCOC(CCCCCCN(CCO)CCCCCCCC(=O)OC(C)CCCCCC)OCCCCCCCC (stereo not drawn) [Compound 32, octan-2-yl 8-((7,7-bis(octyloxy)heptyl)(2-hydroxyethyl)amino)octanoate]

- pKa [1]: 6.47
Compound: CCCCCCCCOC(CCCCCCN(CCO)CCCCCCCC(=O)OCCCCC)OCCCCCCCC [Compound 34, pentyl 8-((7,7-bis(octyloxy)heptyl)(2-hydroxyethyl)amino)octanoate]

- pKa [1]: 6.47
Compound: CCCCCCCCOC(CCCCCCN(CCO)CCCCCCCC(=O)OCCCCCCC)OCCCCCCCC [Compound 31, heptyl 8-((7,7-bis(octyloxy)heptyl)(2-hydroxyethyl)amino)octanoate]
